Measured values published in ChEMBL document CHEMBL5365401, “Discovery of 5-((1H-indazol-3-yl) methylene)-2-thioxoimidazolidin-4-one derivatives as a new class of AHR agonists with anti-psoriasis activity in a mouse model” (Bioorg Med Chem Lett, 2023).
Calls of active or inactive are those of the source. No cut-off for these calls is given here.

system: Mus musculus; experiment: Anti-psoriatic activity in imiquimod-induced BALB/c mouse model assessed as decrease in psoriasis-like skin lesion at 1 % administered topically; type: functional, organism-based; conditions: Zone of skin, route top

SMILES | Activity
C#CCN1C(=O)/C(=C/c2n[nH]c3ccccc23)NC1=S | Active

target: T1, Aryl hydrocarbon receptor (Homo sapiens, UniProt P35869); experiment: Agonist activity at AHR in human HepG2 cells stably transfected with DRE assessed as increase in AHR nuclear translocation at 1 to 10 uM by Western blot analysis; type: cell-based; conditions: dose 1-10 µM
T1 sequence (P35869 whole entry): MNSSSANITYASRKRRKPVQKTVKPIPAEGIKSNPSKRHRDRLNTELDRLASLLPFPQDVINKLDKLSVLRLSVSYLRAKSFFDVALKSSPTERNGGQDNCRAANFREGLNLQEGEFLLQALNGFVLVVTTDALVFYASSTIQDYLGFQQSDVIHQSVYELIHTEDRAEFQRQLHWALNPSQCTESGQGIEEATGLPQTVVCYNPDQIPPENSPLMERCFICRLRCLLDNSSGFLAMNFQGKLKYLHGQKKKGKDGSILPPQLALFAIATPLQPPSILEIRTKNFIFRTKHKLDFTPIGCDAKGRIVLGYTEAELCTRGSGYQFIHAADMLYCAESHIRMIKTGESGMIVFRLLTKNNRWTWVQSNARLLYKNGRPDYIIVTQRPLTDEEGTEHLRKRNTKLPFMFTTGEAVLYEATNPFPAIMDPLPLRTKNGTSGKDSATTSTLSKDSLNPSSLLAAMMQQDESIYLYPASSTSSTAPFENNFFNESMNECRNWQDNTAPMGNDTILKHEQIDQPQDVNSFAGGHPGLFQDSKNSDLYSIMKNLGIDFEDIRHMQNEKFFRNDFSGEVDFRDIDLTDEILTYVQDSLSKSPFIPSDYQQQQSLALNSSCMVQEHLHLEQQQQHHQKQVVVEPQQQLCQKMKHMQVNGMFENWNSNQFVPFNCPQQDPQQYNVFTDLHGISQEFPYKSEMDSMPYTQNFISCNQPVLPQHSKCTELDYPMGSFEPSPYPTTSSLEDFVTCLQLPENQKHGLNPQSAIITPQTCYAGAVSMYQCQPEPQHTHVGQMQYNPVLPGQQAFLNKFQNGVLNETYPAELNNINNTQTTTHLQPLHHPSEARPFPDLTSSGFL

Activity | SMILES
Dose-Dependent Effect | C#CCN1C(=O)/C(=C/c2n[nH]c3ccccc23)NC1=S

target: T1, Aryl hydrocarbon receptor; experiment: Agonist activity at AHR in human HepG2-Lucia AhR cells stably transfected with DRE by luciferase reporter assay; type: cell-based; conditions: not given

SMILES | EC50 [µM]
O=C1NC(=S)N/C1=C\c1c[nH]c2ccccc12 | > 10
O=C1NC(=O)/C(=C/c2c[nH]c3ccccc23)N1 | > 10
CC(C)N1C(=O)/C(=C/c2c[nH]c3ccccc23)NC1=S | 10
CN1C(=O)C(Cc2c[nH]c3ccccc23)NC1=S (stereo not given) [NECROSTATIN] | > 10
COc1cccc(OC)c1C(=O)OCc1cc(=O)n2cc(Br)ccc2n1 | 5.9
CN1C(=O)/C(=C/c2cncnc2)NC1=S | > 10
Cc1[nH]c2ccccc2c1/C=C1\NC(=S)N(C)C1=O | > 10

Stronger by EC50, values ahead:

EC50 [µM] | SMILES
0.219 | CCN1C(=O)/C(=C/c2n[nH]c3ccccc23)NC1=S
3.4 | Cc1ccc([N+](=O)[O-])c2c1NC(c1ccc(Br)cc1)=NO2
0.143 | CN1C(=O)/C(=C/c2c[nH]c3ccccc23)NC1=S
2.8 | Cc1cc(-c2nnc3sc(-c4ccccc4Br)nn23)[nH]n1
1.8 | CCN1C(=O)/C(=C\c2c[nH]c3ccccc23)NC1=S
2.5 | CN1C(=S)NC(=O)/C1=C/c1n[nH]c2ccccc12
0.049 | CN1C(=O)/C(=C/c2n[nH]c3ccccc23)NC1=S
0.528 | CC#CCN1C(=O)/C(=C/c2n[nH]c3ccccc23)NC1=S
1.8 | CN1C(=O)/C(=C/c2csc3ccccc23)NC1=S
0.015 | C#CCN1C(=O)/C(=C/c2n[nH]c3ccccc23)NC1=S

target: T1, Aryl hydrocarbon receptor; experiment: Agonist activity at AHR in human HepG2 cells stably transfected with DRE assessed as increase in CYP1A1 mRNA expression by qPCR assay; type: cell-based; conditions: dose 0.1-10 µM

Activity | SMILES
Dose-Dependent Effect | C#CCN1C(=O)/C(=C/c2n[nH]c3ccccc23)NC1=S
